Measured values: patent publication US8759013B2, “Dual-target biosensor cell assays” (Corning Incorporated, priority 2008, dated 2014)
“Also recorded” adds a separate entry of the source. Where two headings read alike, the source gives them in different places.

How the values were obtained:
[1] = test system: endogenous receptors in A431 cells; test: LOPAC library agonist screening with biosensor cellular assay (DMR); format: cell-based, human; details: for identification of beta-adrenoceptor agonists as hits in the agonist screen: 1 microM
Description: (§1) Corning® Epic® wavelength interrogation system was used.
Furthermore, a ligand-induced DMR is a real time kinetic response containing many useful parameters (e.g., phases, amplitudes and kinetics) for analyzing ligand pharmacology. The LOPAC library was used to screen agonists for endogenous receptors in A431 cells using real time kinetic measurements.
First, the response in terms of wavelength shift between before and 2 min after stimulation was calculated.
Second, the responses in terms of wavelength shift between before and 50 min after stimulation were calculated.
Third, the responses in terms of wavelength shift between 2 min and 50 min after stimulation were calculated. The difference in resonant wavelength between the two time points was plotted as a function of compounds (FIG. 8).

[2] = target: T1, histamine receptor subtype 1 (H1R) (Homo sapiens, UniProt P35367); test: Antagonist pretreatment against the histamine-induced DMR signal in A431 cells; format: cell-based; parameters: endogenous in cells; host or cells: A431 (human epidermoid carcinoma), quiescent after serum starvation; details: pretreatment of A431 with compound at 1 μM
T1 sequence (P35367 whole entry): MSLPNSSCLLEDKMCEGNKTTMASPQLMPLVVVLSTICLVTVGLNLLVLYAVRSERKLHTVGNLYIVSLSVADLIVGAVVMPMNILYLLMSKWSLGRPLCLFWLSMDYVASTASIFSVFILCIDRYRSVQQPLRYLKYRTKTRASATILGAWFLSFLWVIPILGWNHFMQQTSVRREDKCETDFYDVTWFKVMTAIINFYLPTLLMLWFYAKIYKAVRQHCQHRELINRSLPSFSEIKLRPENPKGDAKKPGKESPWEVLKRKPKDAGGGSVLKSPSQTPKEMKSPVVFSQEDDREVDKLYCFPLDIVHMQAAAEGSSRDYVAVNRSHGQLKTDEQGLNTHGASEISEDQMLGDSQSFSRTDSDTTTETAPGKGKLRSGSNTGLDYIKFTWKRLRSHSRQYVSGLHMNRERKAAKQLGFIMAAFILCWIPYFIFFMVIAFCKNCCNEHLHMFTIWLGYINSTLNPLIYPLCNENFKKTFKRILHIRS

[3] = target: T1, histamine receptor subtype 1 (H1R); test: Dual receptor-specific antagonist screening (LOPAC), histamine response; format: cell-based; parameters: endogenous in cells; host or cells: A431 (human epidermoid carcinoma), quiescent after serum starvation
[4] = target: T2, β2-adrenergic receptor (β2AR) (Homo sapiens, UniProt P07550); test: Dual receptor-specific antagonist screening (LOPAC), epinephrine response; format: cell-based; parameters: A431 cells endogenously express both PAR1 and β2AR; endogenous in cells; host or cells: A431 (human epidermoid carcinoma), quiescent after serum starvation
[5] = target: T2, β2-adrenergic receptor (β2AR); details: for type of DMR signal induced: A431 cells, 2 nanomolar in b161/b162
Description: as §1
A431 endogenously expresses large numbers of the β2AR, but neither β1 nor β3-ARs. […] The DMR signal consists of a small decreased signal (i.e., N-DMR) with a short duration, followed by an increased signal (i.e., P-DMR) to an elevated level.

[6] = target: T2, β2-adrenergic receptor (β2AR); details: co-stimulation with 2 nM epinephrine and 1 μM histamine; high doses
[7] = target: T1, histamine receptor subtype 1 (H1R); details: quiescent A431 cells
[8] = target: T1, histamine receptor subtype 1 (H1R)
Description: as §1
To test this possibility, a desensitization assay was used.

[9] = A431 cells, compound at 1 microM, real time kinetic
[10] = compound 1 microM for one hour, then cocktail of epinephrine and histamine

CC(C)NCC(O)c1ccc(NS(C)(=O)=O)cc1 (racemic) [(±)-Sotalol]
ligand-induced DMR signal in agonist screening [1, 9]: did not result in any apparent DMR signals

CN(C)CCC(c1ccc(Br)cc1)c1ccccn1 (racemic) [(±)-brompheniramine]
ligand-induced DMR signal in agonist screening [1, 9]: did not lead to any DMR signal | effect on the DMR signal induced by 1 μM histamine [2]: completely inhibited | effect on the histamine response in the co-stimulation [3]: completely or almost completely attenuated

COCCc1ccc(OCC(O)CNC(C)C)cc1 (racemic) [(±)-metoprolol]
ligand-induced DMR signal in agonist screening [1, 9]: did not result in any apparent DMR signals

CC(C)NCC(O)COc1cccc2ccccc12 (racemic) [(±)-propranolol]
ligand-induced DMR signal in agonist screening [1, 9]: did not result in any apparent DMR signals

CC(C)(C)NCC(O)COc1cccc2[nH]c(=O)[nH]c12 (racemic) [(±)CGP12177]
ligand-induced DMR signal in agonist screening [1, 9]: Gs-like DMR which only consists of the prolonged P-DMR event without the initial N-DMR event

CN(C)CCC(c1ccc(Cl)cc1)c1ccccn1 (racemic) [(±)chlorpheniramine]
ligand-induced DMR signal in agonist screening [1, 9]: did not lead to any DMR signal

CN(C)CC[C@@H](c1ccc(Br)cc1)c1ccccn1 [(+)-brompheniramine]
ligand-induced DMR signal in agonist screening [1, 9]: did not lead to any DMR signal | effect on the histamine response in the co-stimulation [3]: completely or almost completely attenuated

CN(C)CC[C@@H](c1ccc(Cl)cc1)c1ccccn1 [(+)-chlorpheniramine]
ligand-induced DMR signal in agonist screening [1, 9]: did not lead to any DMR signal

CC(C)NC[C@H](O)COc1cccc2ccccc12 [(S)-propranolol]
ligand-induced DMR signal in agonist screening [1, 9]: did not result in any apparent DMR signals

Cc1ccc(OCC(O)C(C)NC(C)C)c2c1CCC2 (stereo not shown) [ICI 118,551]
ligand-induced DMR signal in agonist screening [1, 9]: did not result in any apparent DMR signals | effect on the histamine response in the co-stimulation [3, 10]: little impact

CC(C)NCC(O)c1ccc(O)c(O)c1 (stereo not drawn) [R(−)isoproterenol]
ligand-induced DMR signal in agonist screening [1, 9]: typical Gs-type DMR signal

CC(C)(C)NC[C@H](O)COc1nsnc1N1CCOCC1 [S(−)-timolol]
ligand-induced DMR signal in agonist screening [1, 9]: did not result in any apparent DMR signals

CN(C)CCCCSC(=N)N [SKF91488]
effect on the DMR signal induced by 1 μM histamine [2]: did not have obvious impact

c1cc(CN2CCCCC2)cc(OCCCNc2nc3ccccc3s2)c1 [SKF95282]
effect on the epinephrine response in the co-stimulation [4, 10]: partial desensitization | ligand-induced DMR signal in agonist screening [1, 9]: DMR that was similar to pindolol

CCc1ccccc1OC[C@@H](O)CN[C@H]1CCCc2ccccc21 [SR 59230A]
effect on the epinephrine response in the co-stimulation [4, 10]: inhibited or partially attenuated | ligand-induced DMR signal in agonist screening [1, 9]: did not result in any apparent DMR signals | effect on the histamine response in the co-stimulation [3, 10]: little impact

C=CCc1ccccc1OCC(O)CNC(C)C (stereo not shown) [alprenolol]
ligand-induced DMR signal in agonist screening [1, 9]: did not result in any apparent DMR signals | effect on the histamine response in the co-stimulation [3, 10]: little impact

CCCCc1oc2ccccc2c1C(=O)c1cc(I)c(OCCN(CC)CC)c(I)c1 [amiodarone]
identification of beta-adrenoceptor agonists as hits in the agonist screen ([1]; A431 cells): false negative

CN(C)CCC=C1c2ccccc2CCc2ccccc21 [amitriptyline]
effect on the epinephrine response in the co-stimulation [4, 10]: little effect

Clc1ccc2c(c1)C(N1CCNCC1)=Nc1ccccc1O2 [amoxapine]
effect on the epinephrine response in the co-stimulation [4, 10]: little effect

CC(C)NCC(O)COc1ccc(CCOCC2CC2)cc1 (stereo not shown) [betaxolol]
ligand-induced DMR signal in agonist screening [1, 9]: did not result in any apparent DMR signals | effect on the histamine response in the co-stimulation [3, 10]: little impact

CN1CCC[C@@H]1CCO[C@](C)(c1ccccc1)c1ccc(Cl)cc1 [clemastine]
ligand-induced DMR signal in agonist screening [1, 9]: did not lead to any DMR signal

Clc1ccc(Cn2c(CN3CCCC3)nc3ccccc32)cc1 [clemizole]
ligand-induced DMR signal in agonist screening [1, 9]: did not lead to any DMR signal | effect on the DMR signal induced by 1 μM histamine [2]: completely inhibited | effect on the histamine response in the co-stimulation [3, 10]: completely or almost completely attenuated

CN(C)CCOC(C)(c1ccccc1)c1ccccn1 (stereo not shown) [doxylamine]
ligand-induced DMR signal in agonist screening [1, 9]: did not lead to any DMR signal | effect on the histamine response in the co-stimulation [3, 10]: completely or almost completely attenuated

CNC[C@H](O)c1ccc(O)c(O)c1 [epinephrine]
type of DMR signal induced [5]: Gs-type DMR signal | type of DMR signal induced ([5]; listed as Epinephrine): biphasic Gs-type DMR response | Hill slope of the epinephrine DMR response ([5]; quiescent A431 cells, n=10): 0.95 | effect of pretreatment on the epinephrine response [6]: completely inhibited

NC(N)=Nc1nc(CSCCC(N)=NS(N)(=O)=O)cs1 [famotidine]
effect on the epinephrine response in the co-stimulation [4, 10]: partial desensitization | ligand-induced DMR signal in agonist screening [1, 9]: DMR that was similar to pindolol

CC(C)(C(=O)O)c1ccc(C(O)CCCN2CCC(C(O)(c3ccccc3)c3ccccc3)CC2)cc1 (stereo not shown) [fexofenadine]
ligand-induced DMR signal in agonist screening [1, 9]: did not lead to any DMR signal

NCCc1c[nH]cn1 [histamine]
effect on the epinephrine response in the co-stimulation [4, 10]: but not to epinephrine | type of DMR (optical) signal induced [7]: dose-dependent and saturable Gq-type optical signal | Hill coefficient of the histamine saturation curve ([7]; n=6): 1.87 | ligand-induced DMR signal in agonist screening [1, 9]: biphasic Gq-type DMR signal; also recorded: Gq-like DMR signal | effect of pretreatment on the epinephrine response [6]: slightly attenuated | Hill slope for inhibition of the histamine response [8]: 1.4 | effect of pretreatment on the histamine response [8]: completely inhibited | effect on the histamine response in the co-stimulation [3]: complete desensitization

N=C(N)SCCc1cnc[nH]1 [imetit]
ligand-induced DMR signal in agonist screening [1, 9]: did not lead to any obvious DMR signal

CN1CCC(=C2c3ccccc3CC(=O)c3sccc32)CC1 [ketotifen]
ligand-induced DMR signal in agonist screening [1, 9]: did not lead to any DMR signal

CNCCCC12CCC(c3ccccc31)c1ccccc12 [maprotiline]
effect on the epinephrine response in the co-stimulation [4, 10]: little effect

CN(C)CCN(Cc1cccs1)c1ccccn1 [methapyrilene]
ligand-induced DMR signal in agonist screening [1, 9]: did not lead to any DMR signal

CNCCC=C1c2ccccc2CCc2ccccc21 [nortriptyline]
effect on the epinephrine response in the co-stimulation [4]: little effect

CN(C)CCC(c1ccccc1)c1ccccn1 (stereo not shown) [pheniramine]
ligand-induced DMR signal in agonist screening [1, 9]: did not lead to any DMR signal | effect on the histamine response in the co-stimulation [3, 10]: partial inhibition

CC(COc1ccccc1)N(CCCl)Cc1ccccc1 (stereo not shown) [phenoxybenzamine]
effect on the epinephrine response in the co-stimulation [4, 10]: little effect | effect on the histamine response in the co-stimulation [3]: almost completely inhibited

CC(CN1c2ccccc2Sc2ccccc21)N(C)C (stereo not shown) [promethazine]
ligand-induced DMR signal in agonist screening [1, 9]: did not lead to any DMR signal

COc1ccc(CN(CCN(C)C)c2ccccn2)cc1 [pyrilamine]
ligand-induced DMR signal in agonist screening [1, 9]: did not lead to any DMR signal

CC(C)(C)c1ccc(C(O)CCCN2CCC(C(O)(c3ccccc3)c3ccccc3)CC2)cc1 (stereo not shown) [terfenadine]
ligand-induced DMR signal in agonist screening [1, 9]: did not lead to any DMR signal

S=C(NC1CCCCC1)N1CCC(c2cnc[nH]2)CC1 [thioperamide]
effect on the DMR signal induced by 1 μM histamine [2]: did not have obvious impact

Cc1ccc(/C(=C\CN2CCCC2)c2ccccn2)cc1 [triprolidine]
ligand-induced DMR signal in agonist screening [1, 9]: did not lead to any significant DMR signal | effect on the DMR signal induced by 1 μM histamine [2]: completely inhibited | effect on the histamine response in the co-stimulation [3, 10]: completely or almost completely attenuated

(S)-(−)-propafenone
effect on the epinephrine response in the co-stimulation [4, 10]: inhibited or partially attenuated | ligand-induced DMR signal in agonist screening [1, 9]: did not result in any apparent DMR signals

(±)-ephedrine
identification of beta-adrenoceptor agonists as hits in the agonist screen ([1]; A431 cells): false negative

(±)isoproterenol
ligand-induced DMR signal in agonist screening [1, 9]: typical Gs-type DMR signal

R(−)-α-methyl-histamine
ligand-induced DMR signal in agonist screening [1]: did not lead to any obvious DMR signal

Ruthernium red
ligand-induced DMR signal in agonist screening [1, 9]: Gs-like DMR signal but with much larger amplitude

S(−)pindolol
ligand-induced DMR signal in agonist screening [1, 9]: Gs-like DMR which only consists of the prolonged P-DMR event without the initial N-DMR event
